What follows are compounds tested against T1, human ACC2 (Homo sapiens, UniProt O00763) (assay: ACC2 inhibitory activity, malachite green assay with recombinant ACC2 (Nd)). Conditions: 1 μM of the test compound; read-out: ACC2 inhibitory rates (%) at 1 μM.
T1 construct: made in house; host or cells: SF-9 insect cells, recombinant baculovirus BAC-ACC2 (Nd)
Type: biochemical
Experimental: The ACC2 inhibitory action of the compound of the present invention was evaluated by the following method.
(1) Cloning of Human ACC2 Gene and Preparation of Recombinant Baculovirus
Human ACC2 gene was cloned by PCR using a human skeletal muscle cDNA library (Clontech) as a template and Primer 1 and Primer 2 shown below. Primer 1 and Primer 2 were prepared by adding SalI, XbaI restriction enzyme recognition sequences based on the information of the base sequence of human ACC2 gene (Genbank Accession U89344).
(§1) PCR was performed using Pyrobest DNA polymerase (TAKARA BIO INC.). The obtained PCR product was cloned to pT7 Blue vector (Novagen) and after confirmation of the base sequence, digested with restriction enzymes SalI and XbaI. The obtained DNA fragment was inserted into pFAST-BacHTa (Invitrogen) digested with restriction enzymes SalI and XbaI to give expression plasmid ACC2/pFAST-BacHTa.
A plasmid for expression of ACC2 without a mitochondrial targeting sequence was prepared by PCR using the expression plasmid as a template, and Primer 3 (SalI restriction enzyme recognition sequence was added) and Primer 4, which are prepared by reference to the information of human ACC2 gene base sequence (Genbank Accession U89344).
as §1, with “Pyrobest-DNA” for “Pyrobest DNA”, “AflII.” for “XbaI.”, “ACC2/pFAST-BacHTa” for “pFAST-BacHTa (Invitrogen)”, “AflII” for “XbaI”, “ACC2mito7/pFAST-BacHTa.” for “ACC2/pFAST-BacHTa.”
Using the expression plasmid ACC2mito7/pFAST-BacHTa and BAC-TO-BAC Baculovirus Expression System (Invitrogen), virus stock BAC-ACC2 of recombinant Baculovirus (N terminal deleted (hereinafter Nd)) was prepared.
(2) Preparation of ACC2 (Nd) Protein
SF-9 cells (Invitrogen) were inoculated to a medium (10 L) for insect cells (Sf-900IISFM medium (Invitrogen) containing 5% fetal bovine serum (Trace), 50 mg/L Gentamicin (Wako), 0.1% Pluronic F-68 (Invitrogen)) at 1.0×10^6 cells/mL, and cultured with shaking in Wave Bioreactor (GE Health Care) at 27° C., 20 rpm, rocking angle 10°, oxygen concentration 30%.
On day 2 of the culture, recombinant Baculovirus BAC-ACC2 (Nd) was added, and the cells were cultured for 3 days. The culture medium was centrifuged at 1000×g for 10 min to give virus-infected cells. The cells were washed with phosphate buffered saline (Invitrogen) and centrifuged under the same conditions. The obtained cells were cryopreserved at −80° C.
The cryopreserved cells were thawed in ice and suspended in 900 mL of 25 mM HEPES buffer (pH 7.5) containing 10% Glycerol, 0.3 M NaCl, 1 mM EDTA, 25 mM Sodium β-Glycerophosphate and 1 mM Sodium Orthovanadate, and supplemented with Complete Protease Inhibitor (Roche). The obtained suspension was homogenized three times in a polytron homogenizer (Kinematica) at 20,000 rpm for 30 sec. The obtained cell disruption solution was clarified by centrifugation at 186000×g for 60 min. To the supernatant was added 5 mL of AF-chelate 650M Ni chelated carrier (TOSOH), and the mixture was rotated at 4° C. for 1 hr, and centrifuged at 1000×g for 5 min, and the carrier was transferred to opened column. The column was washed with 50 mL of buffer A (50 mM HEPES (pH 7.5) containing 0.3 M NaCl), further washed with buffer A containing 20 mM Imidazole, and eluted with buffer A containing 250 mM Imidazole. The eluate was concentrated with Amicon Ultra 15 (Millipore) with a molecular weight cut off of 50K. The obtained concentrate was filtered using gelfiltration column (HiLoad 26/60 Superdex200 prep grade) (GE Health Care) with 50 mM HEPES buffer (pH 7.5) containing 10 mM MgCl2, 2 mM Dithiothreitol, 10 mM Tripotassium Citrate and 0.3 M NaCl to give ACC2 (Nd). The obtained ACC2 (Nd) was cryopreserved at −80° C.
(3) Measurement of ACC2 Inhibitory Activity […]

T1 sequence (O00763 117-2458 limits assumed): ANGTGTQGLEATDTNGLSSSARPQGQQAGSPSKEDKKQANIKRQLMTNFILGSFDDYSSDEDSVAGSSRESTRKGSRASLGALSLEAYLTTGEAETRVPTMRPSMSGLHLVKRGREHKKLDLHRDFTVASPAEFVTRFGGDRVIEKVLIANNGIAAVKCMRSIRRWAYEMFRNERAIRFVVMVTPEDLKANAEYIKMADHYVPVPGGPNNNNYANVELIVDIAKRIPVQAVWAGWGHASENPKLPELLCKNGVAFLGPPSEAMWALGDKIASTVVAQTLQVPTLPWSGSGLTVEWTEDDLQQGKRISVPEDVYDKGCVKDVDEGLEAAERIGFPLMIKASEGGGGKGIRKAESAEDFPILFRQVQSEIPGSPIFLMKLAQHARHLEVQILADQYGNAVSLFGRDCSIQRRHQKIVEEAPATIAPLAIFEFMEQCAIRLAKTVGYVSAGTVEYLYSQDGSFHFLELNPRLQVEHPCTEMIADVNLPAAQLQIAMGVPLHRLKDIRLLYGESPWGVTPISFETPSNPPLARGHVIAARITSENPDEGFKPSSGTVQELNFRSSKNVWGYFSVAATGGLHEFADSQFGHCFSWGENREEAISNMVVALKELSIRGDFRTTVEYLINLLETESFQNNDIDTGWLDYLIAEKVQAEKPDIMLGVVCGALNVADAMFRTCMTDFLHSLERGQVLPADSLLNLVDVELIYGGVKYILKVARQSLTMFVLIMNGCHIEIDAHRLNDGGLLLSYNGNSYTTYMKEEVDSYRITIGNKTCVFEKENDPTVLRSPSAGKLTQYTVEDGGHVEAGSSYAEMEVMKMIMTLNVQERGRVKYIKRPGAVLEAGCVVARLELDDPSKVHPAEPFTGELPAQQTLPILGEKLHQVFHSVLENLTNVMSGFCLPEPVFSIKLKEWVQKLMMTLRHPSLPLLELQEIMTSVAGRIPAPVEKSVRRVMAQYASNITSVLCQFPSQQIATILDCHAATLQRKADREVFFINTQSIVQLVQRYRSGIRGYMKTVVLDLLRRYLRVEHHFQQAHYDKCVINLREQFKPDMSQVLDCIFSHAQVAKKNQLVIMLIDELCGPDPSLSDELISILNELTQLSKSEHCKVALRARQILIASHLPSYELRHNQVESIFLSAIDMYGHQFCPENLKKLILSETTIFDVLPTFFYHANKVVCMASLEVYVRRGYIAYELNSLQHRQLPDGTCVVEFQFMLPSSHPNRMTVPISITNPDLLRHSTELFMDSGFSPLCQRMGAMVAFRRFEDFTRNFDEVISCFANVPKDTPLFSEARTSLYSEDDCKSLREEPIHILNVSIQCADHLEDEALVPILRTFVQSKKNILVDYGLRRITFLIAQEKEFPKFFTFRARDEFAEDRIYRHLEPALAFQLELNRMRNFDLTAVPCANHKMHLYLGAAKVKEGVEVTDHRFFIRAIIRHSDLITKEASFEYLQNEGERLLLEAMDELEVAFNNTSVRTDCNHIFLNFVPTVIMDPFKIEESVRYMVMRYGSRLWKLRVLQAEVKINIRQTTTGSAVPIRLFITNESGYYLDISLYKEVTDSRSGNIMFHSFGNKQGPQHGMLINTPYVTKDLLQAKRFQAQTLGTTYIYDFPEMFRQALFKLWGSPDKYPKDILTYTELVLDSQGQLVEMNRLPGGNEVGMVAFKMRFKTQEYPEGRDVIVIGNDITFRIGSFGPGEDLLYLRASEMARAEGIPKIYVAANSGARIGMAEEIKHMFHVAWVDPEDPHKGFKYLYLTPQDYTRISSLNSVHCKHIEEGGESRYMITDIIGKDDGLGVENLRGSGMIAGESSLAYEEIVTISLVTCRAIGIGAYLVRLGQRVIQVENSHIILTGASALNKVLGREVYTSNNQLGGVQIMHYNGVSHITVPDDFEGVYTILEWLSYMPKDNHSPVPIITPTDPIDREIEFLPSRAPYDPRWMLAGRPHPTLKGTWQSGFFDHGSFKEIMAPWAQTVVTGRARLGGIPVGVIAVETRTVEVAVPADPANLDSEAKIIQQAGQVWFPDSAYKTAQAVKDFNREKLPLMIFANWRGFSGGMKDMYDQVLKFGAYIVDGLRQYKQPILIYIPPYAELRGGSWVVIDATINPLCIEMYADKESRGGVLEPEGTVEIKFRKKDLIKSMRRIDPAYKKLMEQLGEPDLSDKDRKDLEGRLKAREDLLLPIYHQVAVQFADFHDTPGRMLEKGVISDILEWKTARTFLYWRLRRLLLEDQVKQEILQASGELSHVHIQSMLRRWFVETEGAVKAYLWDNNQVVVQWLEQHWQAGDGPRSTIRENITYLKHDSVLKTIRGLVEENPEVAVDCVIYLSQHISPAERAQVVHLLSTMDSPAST

inhibition at 1 µM	Structure (SMILES)
98%	CC(=O)N[C@@H](C)COc1cc2oc(-c3ccc(OC[C@H]4CC4(F)F)c(F)c3)nc2cn1 [Example 69, N-((2S)-1-((2-(4-(((1R)-2,2-difluorocyclopropyl)methoxy)-3-fluorophenyl) [1,3]oxazolo[4,5-c]pyridin-6-yl)oxy)propan-2-yl)acetamide]

Same assay, conditions: 10 μM of the test compound; 10 µM

ACC2 inhibitory rates (%) at 10 μM	Structure (SMILES)
95%	CC(=O)NC(C)COC1CCc2oc(-c3ccc(OCC4CC4)c(F)c3)nc2C1 (stereo not drawn) [Example 51d, N-(1-((2-(4-(cyclopropylmethoxy)-3-fluorophenyl)-4,5,6,7-tetrahydro-1,3-benzoxazol-5-yl)oxy)propan-2-yl)acetamide]

Same assay, conditions: 10 μM of the test compound; read-out: ACC2 inhibitory rates (%) at 10 μM

Structure (SMILES)	inhibition at 10 µM
CC(=O)N[C@@H](C)COc1cc(F)c2nc(-c3ccc(OCC4CC4)c(F)c3)oc2c1 [Example 43, N-((2S)-1-((2-(4-(cyclopropylmethoxy)-3-fluorophenyl)-4-fluoro-1,3-benzoxazol-6-yl)oxy)propan-2-yl)acetamide]	92%
CC(=O)N[C@@H](C)COc1cc2oc(-c3ncc(OCC4CC4)cc3C)nc2cn1 [Example 120, N-((2S)-1-((2-(5-(cyclopropylmethoxy)-3-methylpyridin-2-yl)[1,3]oxazolo[4,5-c]pyridin-6-yl)oxy)propan-2-yl)acetamide]	96%
CC(=O)N[C@@H](C)COc1cc2oc(-c3ncc(OC[C@H]4CC4(F)F)cc3Cl)nc2cn1 [Example 163, N-((2S)-1-((2-(3-chloro-5-(((1R)-2,2-difluorocyclopropyl)methoxy)pyridin-2-yl)[1,3]oxazolo[4,5-c]pyridin-6-yl)oxy)propan-2-yl)acetamide]	93%
CC(=O)NC(C)COC1CCc2oc(-c3ccc(OCC4CC4)c(F)c3)nc2C1 (stereo not drawn) [Example 51c, N-(1-((2-(4-(cyclopropylmethoxy)-3-fluorophenyl)-4,5,6,7-tetrahydro-1,3-benzoxazol-5-yl)oxy)propan-2-yl)acetamide]	84%
C[C@@H](COc1ccc2nc(-c3ccc(OCC4CC4)c(F)c3)oc2c1)NC(=O)N(C)C [Example 10, 3-((2S)-1-((2-(4-(cyclopropylmethoxy)-3-fluorophenyl)-1,3-benzoxazol-6-yl)oxy)propan-2-yl)-1,1-dimethylurea]	91%
CC(=O)N[C@@H](C)COc1ncc2nc(-c3cc(F)c(OC[C@H]4CC4(F)F)c(F)c3)oc2n1 [Example 167, N-((2S)-1-((2-(4-(((1R)-2,2-difluorocyclopropyl)methoxy)-3,5-difluorophenyl)[1,3]oxazolo[5,4-d]pyrimidin-5-yl)oxy)propan-2-yl)acetamide]	81%

Second part, the compound after the results:

inhibition at 10 µM	Structure (SMILES)
96%	CC(=O)N[C@@H](C)COc1cc2oc(-c3cc(F)c(OCC4CC4(F)F)c(F)c3)nc2cn1 (stereo partly drawn) [Example 131, N-((2S)-1-((2-(4-((2,2-difluorocyclopropyl)methoxy)-3,5-difluorophenyl)[1,3]oxazolo[4,5-c]pyridin-6-yl)oxy)propan-2-yl)acetamide]
101%	CC(=O)N[C@@H](C)COc1cc2oc(-c3ccc(OCC4CC4)cc3C)nc2cn1 [Example 117, N-((2S)-1-((2-(4-(cyclopropylmethoxy)-2-methylphenyl)[1,3]oxazolo[4,5-c]pyridin-6-yl)oxy)propan-2-yl)acetamide]
94%	CC(=O)N[C@@H](C)COc1cc2oc(-c3ccc(OCC4CC4(F)F)c(F)c3)nc2cn1 (stereo partly drawn) [Example 49, N-((2S)-1-((2-(4-((2,2-difluorocyclopropyl)methoxy)-3-fluorophenyl)[1,3]oxazolo[4,5-c]pyridin-6-yl)oxy)propan-2-yl)acetamide]
80%	CC(=O)N[C@@H](C)COc1cc2oc(-c3ccc(OCC4(C)CC4(F)F)c(F)c3)nc2cn1 (stereo partly drawn) [Example 159, N-((2S)-1-((2-(4-((2,2-difluoro-1-methylcyclopropyl)methoxy)-3-fluorophenyl)[1,3]oxazolo[4,5-c]pyridin-6-yl)oxy)propan-2-yl)acetamide]
